Results as given in publication PMC10192568, “Comparison of pharmacokinetic profiles of seven major bioactive components in normal and non-alcoholic fatty liver disease (NAFLD) rats after oral administration of Ling-Gui-Zhu-Gan decoction by UPLC-MS/MS” (Frontiers in Pharmacology, 2023).
Where two headings read alike, the source gives them in different places.

Assays:
[1] = Stability of the seven components in rat plasma QC samples; assay type: physicochemical; settings: n = 6; for Stability during 24 h at 4°C, RE: auto sampler
Procedure: Stability refers to the ability of the components to retain their chemical properties in the matrix. To analyze the stability of all components in the plasma, six replicates of QC samples at three concentrations were hereby prepared under each condition. The stability of the QC samples at three concentrations was analyzed under different storage conditions: −80°C for 30 days, after three freeze–thaw cycles, and 24 h in an auto sampler at 4°C.

[2] = Pharmacokinetic study of LGZGD components in plasma of normal and NAFLD rats after oral administration (UPLC-MS/MS); assay type: in vivo, Male Sprague–Dawley rats; settings: for AUC0-∞ value decreased / C max value decreased: NAFLD rats compared with normal rats; for AUC(0-inf) / AUC(0-t) / Cmax / Tmax / half-life / MRT last: male, Sprague-Dawley, rat, plasma, po, 23 g/kg, male SD rats, oral LGZGD extract 23 g/kg, mean ± SD, n = 6; for MRT last: read-out: MRT0-t
Procedure: Male Sprague–Dawley rats, weighing 200–220 g, SPF grade, were purchased from Shanghai Sippr-BK laboratory animal Co. Ltd. (Shanghai, China) and raised in the Laboratory Animal Center of Shanghai University of Traditional Chinese Medicine. The rats were kept in an environmentally controlled condition: on a 12:12 h light–dark cycle (lights on at 7:00 a.m.) with regulated temperature and humidity, at a temperature of 22°C–24°C and a relative humidity of 60–65%. In the experiment, the rats in the normal group were fed a certified standard rat diet and tap water, while those in the model group were fed a high-fat diet for 8 weeks to construct the NAFLD model (high-fat diet: 2% cholesterol, 10% lard, 0.1% sodium cholate, 10% yolk powder, and 77.9% normal diet). The animal experiment program was approved by the Animal Committee of Shanghai University of Traditional Chinese Medicine (License No.: PZSHUTCM201016001).
An Agilent 1290 UPLC system was combined with an Agilent 6460 series MS/MS system (Agilent Technologies, Santa Clara, CA, United States) to quantify the analytes in the ESI-positive ionization mode. The mass spectrum conditions were as follows: a capillary voltage of 4,000 V; a gas flow rate of 10 L/min; a nebulizer of 30 psi; a gas temperature of 350°C; and a Delta EMV(+) of 200 V. Five microliters of the samples was injected into an Agilent SB-C18 column (2.1 mm × 50 mm, 1.8 μm particles). The analytes were separated using the gradient elution method, and the mobile phase was composed of water (0.05% V/V formic acid) (A) and acetonitrile (B) at a flow rate of 0.4 mL/min (0–1 min, 10–10% B; 1–5 min, 10–90% B; 5–7 min, 90–90% B; and 7–7.1 min, B 90–10%; rebalance for 2 min).
A plasma sample of 50 µL was placed in a 1.5 mL centrifuge tube with 10 µL of schisandrin (IS) solution (50 ng/mL) and mixed for 5 min. The samples were successively extracted with 500 µL of ethyl acetate and treated with 250 µL of methanol, which were then mixed for 5 min and centrifuged at 4°C for 10 min (at 18,000 rpm). All the supernatant was absorbed into another 1.5 mL centrifuge tube, dried under a gentle stream of nitrogen at 37°C, and then added with 50 µL of 50% methanol for reconstruction. After being centrifuged at 4°C for 10 min (at 18,000 rpm), 5 µL of the supernatant was extracted and injected into a chromatographic column for analysis, and the chromatograms were recorded.
The rats were randomly divided into the normal group and the model group. According to the preliminary experiment, the dose was adjusted to about eight times the normal dose ([Gu, 2020]; [Li et al., 2023]). […] The animal research program was approved by the Animal Committee of Shanghai University of Traditional Chinese Medicine. At 0, 0.083, 0.25, 0.5, 0.75, 1, 2, 4, 6, 8, 10, 12, 24, and 48 h after dosing, 150 µL blood samples were collected from the rats' orbital venous plexus into centrifuge tubes containing 10 IU of sodium heparin. After being centrifuged at 5,000 rpm (4°C) for 10 min, the plasma was transferred to 1.5 mL polypropylene tubes and stored at −80°C until the plasma samples were analyzed.
Important pharmacokinetic parameters, which included the maximum plasma concentration (C max), time to maximum concentration (T max), half-life (t 1/2), area under the curve (AUC0-t), and total area under the curve (AUC0-∞), were hereby calculated using the DAS 3.2.8 software. Meanwhile, the pharmacokinetic data of the normal and model rats were compared using the SPSS software (version 21.0). Besides, Spearman rank bivariate correlation coefficient was used to determine the correlation between AUC values and UGT1A1 and nine other transporters. All the calculated data were expressed as mean ± SD. When p < 0.05, the difference was considered significant and statistically significant; and when p < 0.01 or <0.001, the difference was considered very significant.

[3] = NAFLD rats compared with the normal group, oral LGZGD

Row | Stability during 24 h at 4°C, RE ([1]; high QC level) [%] | Stability during 24 h at 4°C, RE ([1]; low QC level) [%] | Stability during 24 h at 4°C, RE ([1]; medium QC level) [%] | Three freeze–thaw cycles, RE ([1]; high QC level) [%] | −80°C for 30 days, RE ([1]; high QC level) [%] | Three freeze–thaw cycles, RE ([1]; low QC level) [%] | −80°C for 30 days, RE ([1]; low QC level) [%] | Three freeze–thaw cycles, RE ([1]; medium QC level) [%] | −80°C for 30 days, RE ([1]; medium QC level) [%] | AUC0-∞ value decreased ([2]; oral LGZGD) [%] | C max value decreased ([2]; oral LGZGD) [%] | AUC(0-inf) ([2]; Model (NAFLD) group) [ng·h/mL] | AUC(0-t) ([2]; Model (NAFLD) group) [ng·h/mL] | Cmax ([2]; Model (NAFLD) group) [ng/mL] | Tmax ([2]; Model (NAFLD) group) [h] | half-life ([2]; Model (NAFLD) group) [min] | MRT last ([2]; Model (NAFLD) group) [h] | AUC(0-inf) ([2]; Normal group) [ng·h/mL] | AUC(0-t) ([2]; Normal group) [ng·h/mL] | Cmax ([2]; Normal group) [ng/mL] | Compound | other results
1 | −4.0 | 6.4 | 5.2 | −3.8 | 14.1 | 13.3 | −4.4 | −9.5 | −3.5 | 70.8 | 35.2 | 166 ± 45.1 | 117 ± 16.1 | 7.9 ± 1.3 | 0.6 ± 0.1 | 1100 ± 78 | 19.3 ± 2.9 | 568 ± 235 | 352 ± 21.5 | 12.2 ± 3.4 | C=C1CCC[C@]2(C)C[C@]3(O)OC(=O)C(C)=C3C[C@@H]12 [Atractylenolide III, atractylenolide III] | MRT0-t prolonged [2, 3]: 31.3%; Tmax ([2]; Normal group): 0.7 ± 0.1 h; half-life ([2]; Normal group): 612 ± 264 min; MRT last ([2]; Normal group): 14.7 ± 1.5 h
2 | −3.7 | 8.4 | 13.9 | −11.1 | −2.6 | −0.4 | −8.0 | 0.7 | 3.6 | 58.1 | 38.3 | 4410 ± 1420 | 4330 ± 1330 | 1190 ± 352 | 0.6 ± 0.1 | 396 ± 210 | 6.2 ± 1.8 | 10500 ± 1900 | 10100 ± 1770 | 1930 ± 484 | O=C(O)/C=C/c1ccccc1 [Cinnamic acid, cinnamic acid] | Tmax ([2]; Normal group): 0.6 ± 0.1 h; half-life ([2]; Normal group): 768 ± 216 min; MRT last ([2]; Normal group): 8.2 ± 1.3 h
3 | −8.9 | 5.2 | 6.7 | 2.2 | 2.6 | −0.4 | −5.2 | −7.7 | −4.9 | 50.6 | 65.0 | 26200 ± 14400 | 25600 ± 14800 | 1650 ± 1170 | 13.2 ± 6.3 | 534 ± 270 | 15.6 ± 2.3 | 89600 ± 28600 | 88200 ± 27200 | 7280 ± 2080 | CC1(C)[C@@H](O)CC[C@]2(C)[C@H]3C(=O)C=C4[C@@H]5C[C@@](C)(C(=O)O)CC[C@]5(C)CC[C@@]4(C)[C@]3(C)CC[C@@H]12 [Glycyrrhetinic acid, glycyrrhetinic acid] | MRT0-t prolonged [2, 3]: 44.4%; Tmax ([2]; Normal group): 9.3 ± 1.6 h; half-life ([2]; Normal group): 360 ± 126 min; MRT last ([2]; Normal group): 10.8 ± 1.1 h

Row | Compound | Stability during 24 h at 4°C, RE ([1]; high QC level) [%] | Stability during 24 h at 4°C, RE ([1]; low QC level) [%] | Stability during 24 h at 4°C, RE ([1]; medium QC level) [%] | Three freeze–thaw cycles, RE ([1]; high QC level) [%] | −80°C for 30 days, RE ([1]; high QC level) [%] | Three freeze–thaw cycles, RE ([1]; low QC level) [%] | −80°C for 30 days, RE ([1]; low QC level) [%] | Three freeze–thaw cycles, RE ([1]; medium QC level) [%] | −80°C for 30 days, RE ([1]; medium QC level) [%] | AUC0-∞ value decreased ([2]; oral LGZGD) [%] | C max value decreased ([2]; oral LGZGD) [%] | AUC(0-inf) ([2]; Model (NAFLD) group) [ng·h/mL] | AUC(0-t) ([2]; Model (NAFLD) group) [ng·h/mL] | Cmax ([2]; Model (NAFLD) group) [ng/mL] | Tmax ([2]; Model (NAFLD) group) [h] | half-life ([2]; Model (NAFLD) group) [min] | MRT last ([2]; Model (NAFLD) group) [h] | AUC(0-inf) ([2]; Normal group) [ng·h/mL] | AUC(0-t) ([2]; Normal group) [ng·h/mL] | Cmax ([2]; Normal group) [ng/mL] | other results
4 | C=C(CC[C@@H](C(=O)O)[C@H]1[C@H](O)C[C@@]2(C)C3=CC[C@H]4C(C)(C)[C@@H](O)CC[C@]4(C)C3=CC[C@]12C)C(C)C [Dehydrotumulosic acid, dehydrotumulosic acid] | −2.3 | 3.8 | 1.6 | 5.5 | 3.0 | −12.8 | 3.2 | −4.3 | 10.2 | 75.1 | 62.4 | 43.5 ± 12 | 43.4 ± 12 | 3.8 ± 0.6 | 1.8 ± 1.6 | 300 ± 108 | 10.4 ± 2.2 | 175 ± 37.2 | 142 ± 15.8 | 10.1 ± 3 | MRT decreased [2, 3]: 27.8%; Tmax ([2]; Normal group): 4 ± 1.8 h; half-life ([2]; Normal group): 1140 ± 732 min; MRT last ([2]; Normal group): 14.4 ± 2.7 h
